Experimental data as given in patent US11913031B2, “Method to reproduce circadian rhythms on a microfluidic chip” (Yissum Research Development Company of the Hebrew …, priority 2017, dated 2024).

Key:
E6/E7 hepatocytes = experiment: Conditional proliferation and EMT of E6/E7 human hepatocytes
liver = settings: Table 4 compound list, toxicological end-point; cited from earlier work
human hepatocytes = experiment: Lipid accumulation in human hepatocytes; type: cell-based
Protocol: The present inventor uses IR-spectroscopy to track this metabolic signature in real time. Wild type and CRY1/2 knockout hepatocytes are perfused with (1) all hormones and factors (FIGS. 17A-B), or with time-average concentrations of (2) melatonin, (3) cortisol, (4) T3, (5) growth hormone, and (6) average temperature. Signature is analysed by IR-spectroscopy every 30 min for 24 hours. IR-spectra is critically compared to intracellular metabolites quantified by LC-MS/MS, as well as specific quantification of triglycerides and bile acids using commercially available kits (FIGS. 16A-F). […] Mechanism is evaluated by systematically perturbing regulators whose activity changed prior to steatosis.

HepG2/C3A cells = type: cell-based
Text: FIGS. 11A-E—FIG. 11A—System schematic. FIG. 11B—Oxygen-quenched decay causes phase shift between the intensity-modulated excitation and emission light. Two-superimposed frequencies were used to screen out background interference. FIG. 11C—Fluorescence image of HepG2/C3A cells and sensor particles after immobilization in a collagen matrix.
Real-time focus independent measurement of oxygen uptake in microfluidic bioreactor: Oxygen uptake is a critical measurement of mitochondrial function and metabolic activity^35, 36. However, electrochemical electrodes require frequent re-calibration, while optical sensors are affected by small changes in focus, cell migration and stage movement, making them unreliable for real time measurements of oxygen uptake. Therefore, the present inventor designed an optical system in which organoids are embedded with nanoprobes containing RuP dye and excited at 532 nm (FIGS. 11A-E). Oxygen is a quencher of RuP phosphorescence, leading to a decrease in decay time. Importantly, decay time is not sensitive to changes in probe concentration or excitation intensity (i.e. cell migration, mechanical movement). To measure in real-time, the present inventor used a novel two-frequency sinusoidal intensity-modulated light, allowing us to filter background interference while measuring phase shift in the emitted light.

HeLa cells = experiment: Acetaminophen loss of mitochondrial respiration repeated in HeLa cells; type: cell-based
E6/E7low 422 hepatocytes = experiment: Circadian gene expression (RNA sequencing, JTK_CYCLE) after dexamethasone entrainment, line 422; type: cell-based, human; settings: 100 μM (day medium), 24±4 hours period, adjusted p-values less than 0.005
Protocol: (§1) E6/E7^low Upcyte™ hepatocytes line 422, from a donor, and line 653, from an old donor, were seeded in OSM-free differentiation media as previously described (Levy et al. Nature Biotechnology 2015). Following 5 days of differentiation, cells were synchronized in corticosteroid-free culture medium for 24 hours, followed by high 100 μM Dexamethasone dose (day medium), entraining a circadian cycle. Triplicate cell-lysate and media samples were collected every 4 hours in the following 2 days. RNA was extracted from lysate samples, using NucleoSpin® RNA (Qiagen, Valencia, Calif.) according to manufacturer's direction. RNA were further reverse-transcribed to increase stability of the molecules and tagmented with in-house produced primers containing unique-per-molecule tags along with unique-per-sample tag, using an in-house developed TN5 enzyme. […] Library construction was conducted using Illumina TruSeq RNA Library Prep V2 Kit (Illumina, San Diego, Calif.) according to manufacturer's protocol and sequenced on Illumina NextSeq500 with single-end, 86 bp reads using the High Output V2 Kit. Sequencing reads were filtered to unique reads only and mapped to the UCSC human transcriptome (genome build hg38) using Bowtie 2. Expression levels of all genes were quantified using bedtools. […]

E6/E7low 653 hepatocytes = experiment: Circadian gene expression (RNA sequencing, JTK_CYCLE) after dexamethasone entrainment, line 653; type: cell-based, human; settings: 100 μM (day medium), 24±4 hours period, adjusted p-values less than 0.005
Protocol: as §1

Q: For `N#CC(=C(/N)Sc1ccccc1N)/C(C#N)=C(\N)Sc1ccccc1N` [U0126], which “Epithelial-to-mesenchymal transition (EMT)” value (E6/E7 hepatocytes) is on record?
A: blocked

Q: And the “epithelial morphology and cell polarization” value (E6/E7 hepatocytes)?
A: stabilizing epithelial morphology and cell polarization

Q: For `Cc1c(C)c2c(c(C)c1O)CCC(C)(COc1ccc(CC3SC(=O)NC3=O)cc1)O2` (centres unmarked) [Troglitazone], which Toxicity (liver) is on record?
A: Cholestasis

Q: For `CC(=O)Oc1ccccc1C(=O)O` [Aspirin], which Toxicity (liver) is on record?
A: Steatosis

Q: With `COc1ccc2[nH]cc(CCNC(C)=O)c2c1` [melatonin, Melatonin] as the molecule, how does the lipid accumulation (human hepatocytes) read?
A: induce lipid accumulation

Q: What does the source list for `CC(=O)Nc1ccc(O)cc1` [Acetaminophen]?
A: effect on oxygen uptake over time (HepG2/C3A cells): immediate, reversible, dose-dependent loss of oxygen uptake followed by a slow, irreversible, dose-independent death; time at which immediate dose-dependent loss of oxygen uptake concludes (HepG2/C3A cells; human): 60 min; time to total cell death (slow dose-independent loss of oxygen uptake) (HepG2/C3A cells; human): 3 to 5 days; transient loss of mitochondrial respiration in cells that lack CYP2E1 and 3A4 (HeLa cells): repeated in HeLa cells; Toxicity (liver): Apoptosis

Q: With `CN(C)CCCN1c2ccccc2Sc2ccc(Cl)cc21` [Chlorpromazine] as the molecule, how does the Toxicity (liver) read?
A: Cholestasis

Q: Which “genes with circadian expression pattern” value (E6/E7low 422 hepatocytes) does the source give for `C[C@@H]1C[C@H]2[C@@H]3CCC4=CC(=O)C=C[C@]4(C)[C@@]3(F)[C@@H](O)C[C@]2(C)[C@@]1(O)C(=O)CO` [Dexamethasone, 9α-fluoro-11β,17α,21-trihydroxy-16α-methylpregna-1,4-diene-3,20-dione] here?
A: 267 genes

Q: And the “genes with circadian expression pattern” value (E6/E7low 653 hepatocytes)?
A: 41 genes

B1: Oncostatin m (protein, UniProt P13725 26-221, looked up)
Oncostatin-M: AAIGSCSKEYRVLLGQLQKQTDLMQDTSRLLDPYIRIQGLDVPKLREHCRERPGAFPSEETLRGLGRRGFLQTLNATLGCVLHRLADLEQRLPKAQDLERSGLNIEDLEKLQMARPNILGLRNNIYCMAQLLDNSDTAEPTKAGRGASQPPTPTPASDAFQRKLEGCRFLHGYHRFMHSVGRVFSKWGESPNRSRR
Q: For B1, which “doubling time of Jak-STAT3 dependent proliferation” value (E6/E7 hepatocytes; OSM stimulation) is on record?
A: 40 h
